Assays:
[1] = target: T1, Serine/threonine-protein kinase 4 (Homo sapiens) (UniProt Q13043); assay: Inhibition of STK4 (unknown origin) using fluorescein-labelled Ser/Thr-07 peptide as substrate incubated for 1 hr in presence of ATP at Km concentration by Z-LYTE assay
T1 sequence (whole entry): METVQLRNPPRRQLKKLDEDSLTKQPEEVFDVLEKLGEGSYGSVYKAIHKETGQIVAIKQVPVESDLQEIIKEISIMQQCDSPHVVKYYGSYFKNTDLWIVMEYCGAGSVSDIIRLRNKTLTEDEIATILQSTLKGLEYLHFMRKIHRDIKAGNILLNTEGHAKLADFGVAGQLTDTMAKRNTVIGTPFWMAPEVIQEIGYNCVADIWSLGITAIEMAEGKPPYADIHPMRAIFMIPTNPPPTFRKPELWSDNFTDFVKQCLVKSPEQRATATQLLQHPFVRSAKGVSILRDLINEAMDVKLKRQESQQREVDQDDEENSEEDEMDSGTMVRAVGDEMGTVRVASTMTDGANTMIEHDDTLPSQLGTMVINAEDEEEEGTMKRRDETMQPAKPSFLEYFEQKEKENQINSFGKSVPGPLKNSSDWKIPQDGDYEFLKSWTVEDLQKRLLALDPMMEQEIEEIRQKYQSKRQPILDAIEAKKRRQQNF

[2] = target: Calcium/calmodulin-dependent protein kinase type II subunit beta (Homo sapiens) (UniProt Q13554); assay: Inhibition of CAMK2B in human NCI-H929 cells at 10 uM by mass spectroscopic analysis relative to control; assay type: cell-based
Calcium/calmodulin-dependent protein kinase type II subunit beta (Homo sapiens), sequence (Q13554 whole entry): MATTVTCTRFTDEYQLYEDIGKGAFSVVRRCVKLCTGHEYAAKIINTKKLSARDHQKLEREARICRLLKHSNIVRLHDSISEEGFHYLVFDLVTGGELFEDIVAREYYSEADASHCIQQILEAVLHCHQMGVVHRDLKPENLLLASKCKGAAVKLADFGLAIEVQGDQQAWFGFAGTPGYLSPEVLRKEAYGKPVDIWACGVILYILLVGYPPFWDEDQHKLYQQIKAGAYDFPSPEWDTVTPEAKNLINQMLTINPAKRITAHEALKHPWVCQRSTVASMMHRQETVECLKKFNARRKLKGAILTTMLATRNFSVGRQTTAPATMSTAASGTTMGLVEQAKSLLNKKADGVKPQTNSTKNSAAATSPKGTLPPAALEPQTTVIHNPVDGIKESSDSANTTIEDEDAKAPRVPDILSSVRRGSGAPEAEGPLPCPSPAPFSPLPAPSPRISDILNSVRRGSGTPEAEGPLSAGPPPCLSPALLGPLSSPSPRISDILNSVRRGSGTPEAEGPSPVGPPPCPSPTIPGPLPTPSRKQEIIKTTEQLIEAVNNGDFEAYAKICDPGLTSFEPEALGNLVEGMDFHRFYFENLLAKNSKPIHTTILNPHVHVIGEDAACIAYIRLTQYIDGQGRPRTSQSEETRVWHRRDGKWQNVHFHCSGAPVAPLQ

[3] = target: Tyrosine-protein kinase Fyn (Homo sapiens) (UniProt P06241); assay: Inhibition of FYN in human NCI-H929 cells at 10 uM by mass spectroscopic analysis relative to control; assay type: cell-based
[4] = target: Mitogen-activated protein kinase 8 (Homo sapiens) (UniProt P45983); assay: Inhibition of JNK1 in human NCI-H929 cells at 10 uM by mass spectroscopic analysis relative to control; assay type: cell-based
[5] = target: Mitogen-activated protein kinase 9 (Homo sapiens) (UniProt P45984); assay: Inhibition of JNK2 in human NCI-H929 cells at 10 uM by mass spectroscopic analysis relative to control; assay type: cell-based
Mitogen-activated protein kinase 9 (Homo sapiens), sequence (P45984 whole entry, looked up): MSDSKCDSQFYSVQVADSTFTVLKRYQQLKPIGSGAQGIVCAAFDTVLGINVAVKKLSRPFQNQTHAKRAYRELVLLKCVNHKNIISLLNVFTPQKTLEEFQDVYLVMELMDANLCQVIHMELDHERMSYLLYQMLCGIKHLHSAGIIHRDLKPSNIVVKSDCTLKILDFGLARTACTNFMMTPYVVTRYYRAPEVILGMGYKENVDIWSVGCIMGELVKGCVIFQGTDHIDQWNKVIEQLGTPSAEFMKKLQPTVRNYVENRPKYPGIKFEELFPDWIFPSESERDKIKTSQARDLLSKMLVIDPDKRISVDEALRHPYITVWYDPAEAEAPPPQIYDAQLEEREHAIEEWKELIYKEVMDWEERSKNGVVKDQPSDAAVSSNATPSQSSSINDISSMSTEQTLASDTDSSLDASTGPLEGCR

[6] = target: T2, Kinase suppressor of Ras 2 (Homo sapiens) (UniProt Q6VAB6); assay: Inhibition of KSR2 in human NCI-H929 cells at 10 uM by mass spectroscopic analysis relative to control; assay type: cell-based
T2 sequence (whole entry): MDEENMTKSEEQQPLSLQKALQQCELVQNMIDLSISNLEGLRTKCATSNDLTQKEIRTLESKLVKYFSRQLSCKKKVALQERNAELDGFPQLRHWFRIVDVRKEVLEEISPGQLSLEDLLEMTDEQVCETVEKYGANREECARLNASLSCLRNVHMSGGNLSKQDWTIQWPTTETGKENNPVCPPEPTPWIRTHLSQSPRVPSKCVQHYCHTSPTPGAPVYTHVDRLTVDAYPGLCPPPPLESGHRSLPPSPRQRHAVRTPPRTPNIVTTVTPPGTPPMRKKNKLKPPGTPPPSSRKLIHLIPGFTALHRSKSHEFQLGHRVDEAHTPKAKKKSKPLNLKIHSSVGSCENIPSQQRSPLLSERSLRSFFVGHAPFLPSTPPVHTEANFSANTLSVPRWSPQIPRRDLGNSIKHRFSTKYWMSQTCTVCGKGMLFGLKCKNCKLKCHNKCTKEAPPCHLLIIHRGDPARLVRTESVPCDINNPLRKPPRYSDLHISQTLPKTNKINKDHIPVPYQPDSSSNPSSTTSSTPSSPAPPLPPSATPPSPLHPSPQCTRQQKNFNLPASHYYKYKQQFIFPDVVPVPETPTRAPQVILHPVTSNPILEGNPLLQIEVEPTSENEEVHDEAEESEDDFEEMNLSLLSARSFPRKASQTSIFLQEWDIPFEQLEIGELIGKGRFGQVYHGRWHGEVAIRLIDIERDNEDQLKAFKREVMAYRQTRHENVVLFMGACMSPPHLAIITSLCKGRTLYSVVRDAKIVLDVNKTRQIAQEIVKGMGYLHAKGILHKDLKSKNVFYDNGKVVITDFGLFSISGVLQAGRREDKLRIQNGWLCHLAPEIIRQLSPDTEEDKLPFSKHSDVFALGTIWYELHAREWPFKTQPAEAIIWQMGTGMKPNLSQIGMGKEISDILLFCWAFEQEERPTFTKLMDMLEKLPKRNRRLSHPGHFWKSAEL

[7] = target: MAP kinase-activated protein kinase 2 (Homo sapiens) (UniProt P49137); assay: Inhibition of MAPKAPK2 in human NCI-H929 cells at 10 uM by mass spectroscopic analysis relative to control; assay type: cell-based
MAP kinase-activated protein kinase 2 (Homo sapiens), sequence (P49137 whole entry, looked up): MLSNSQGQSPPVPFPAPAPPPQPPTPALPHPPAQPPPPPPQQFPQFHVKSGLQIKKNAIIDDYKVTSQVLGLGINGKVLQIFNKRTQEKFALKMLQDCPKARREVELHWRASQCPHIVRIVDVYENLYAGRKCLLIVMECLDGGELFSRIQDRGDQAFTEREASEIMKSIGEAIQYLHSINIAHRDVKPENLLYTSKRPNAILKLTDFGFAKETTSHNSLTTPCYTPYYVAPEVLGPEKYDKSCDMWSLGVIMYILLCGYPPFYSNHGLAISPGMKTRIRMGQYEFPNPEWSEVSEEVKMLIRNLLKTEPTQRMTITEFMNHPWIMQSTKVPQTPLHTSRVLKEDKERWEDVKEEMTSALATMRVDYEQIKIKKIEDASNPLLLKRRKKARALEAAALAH

[8] = target: MAP kinase-activated protein kinase 3 (Homo sapiens) (UniProt Q16644); assay: Inhibition of MAPKAPK3 in human NCI-H929 cells at 10 uM by mass spectroscopic analysis relative to control; assay type: cell-based
MAP kinase-activated protein kinase 3 (Homo sapiens), sequence (Q16644 whole entry, looked up): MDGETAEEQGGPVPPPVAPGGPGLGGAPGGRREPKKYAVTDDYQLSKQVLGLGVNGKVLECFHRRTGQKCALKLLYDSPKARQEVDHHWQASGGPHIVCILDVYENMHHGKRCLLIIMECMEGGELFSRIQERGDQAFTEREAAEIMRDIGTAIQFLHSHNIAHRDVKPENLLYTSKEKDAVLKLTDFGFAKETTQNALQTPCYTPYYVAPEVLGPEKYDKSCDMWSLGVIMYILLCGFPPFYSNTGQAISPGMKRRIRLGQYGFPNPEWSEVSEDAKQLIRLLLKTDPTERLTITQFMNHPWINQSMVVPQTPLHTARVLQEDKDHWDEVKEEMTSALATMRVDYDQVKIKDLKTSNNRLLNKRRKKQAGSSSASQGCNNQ

[9] = target: Serine/threonine-protein kinase Nek6 (Homo sapiens) (UniProt Q9HC98); assay: Inhibition of NEK6 in human NCI-H929 cells at 10 uM by mass spectroscopic analysis relative to control; assay type: cell-based
Serine/threonine-protein kinase Nek6 (Homo sapiens), sequence (Q9HC98 whole entry): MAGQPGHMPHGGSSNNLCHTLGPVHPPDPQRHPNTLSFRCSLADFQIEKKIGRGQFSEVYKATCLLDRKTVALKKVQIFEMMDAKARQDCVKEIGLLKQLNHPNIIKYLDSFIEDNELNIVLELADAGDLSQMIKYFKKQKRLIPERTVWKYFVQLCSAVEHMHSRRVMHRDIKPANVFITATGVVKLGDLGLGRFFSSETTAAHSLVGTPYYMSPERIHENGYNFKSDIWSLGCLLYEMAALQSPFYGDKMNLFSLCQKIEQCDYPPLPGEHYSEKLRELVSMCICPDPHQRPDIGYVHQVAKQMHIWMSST

[10] = target: Phosphatidylinositol 4-kinase alpha (Homo sapiens) (UniProt P42356); assay: Inhibition of PI4KA in human NCI-H929 cells at 10 uM by mass spectroscopic analysis relative to control; assay type: cell-based
Phosphatidylinositol 4-kinase alpha (Homo sapiens), sequence (P42356 whole entry, looked up): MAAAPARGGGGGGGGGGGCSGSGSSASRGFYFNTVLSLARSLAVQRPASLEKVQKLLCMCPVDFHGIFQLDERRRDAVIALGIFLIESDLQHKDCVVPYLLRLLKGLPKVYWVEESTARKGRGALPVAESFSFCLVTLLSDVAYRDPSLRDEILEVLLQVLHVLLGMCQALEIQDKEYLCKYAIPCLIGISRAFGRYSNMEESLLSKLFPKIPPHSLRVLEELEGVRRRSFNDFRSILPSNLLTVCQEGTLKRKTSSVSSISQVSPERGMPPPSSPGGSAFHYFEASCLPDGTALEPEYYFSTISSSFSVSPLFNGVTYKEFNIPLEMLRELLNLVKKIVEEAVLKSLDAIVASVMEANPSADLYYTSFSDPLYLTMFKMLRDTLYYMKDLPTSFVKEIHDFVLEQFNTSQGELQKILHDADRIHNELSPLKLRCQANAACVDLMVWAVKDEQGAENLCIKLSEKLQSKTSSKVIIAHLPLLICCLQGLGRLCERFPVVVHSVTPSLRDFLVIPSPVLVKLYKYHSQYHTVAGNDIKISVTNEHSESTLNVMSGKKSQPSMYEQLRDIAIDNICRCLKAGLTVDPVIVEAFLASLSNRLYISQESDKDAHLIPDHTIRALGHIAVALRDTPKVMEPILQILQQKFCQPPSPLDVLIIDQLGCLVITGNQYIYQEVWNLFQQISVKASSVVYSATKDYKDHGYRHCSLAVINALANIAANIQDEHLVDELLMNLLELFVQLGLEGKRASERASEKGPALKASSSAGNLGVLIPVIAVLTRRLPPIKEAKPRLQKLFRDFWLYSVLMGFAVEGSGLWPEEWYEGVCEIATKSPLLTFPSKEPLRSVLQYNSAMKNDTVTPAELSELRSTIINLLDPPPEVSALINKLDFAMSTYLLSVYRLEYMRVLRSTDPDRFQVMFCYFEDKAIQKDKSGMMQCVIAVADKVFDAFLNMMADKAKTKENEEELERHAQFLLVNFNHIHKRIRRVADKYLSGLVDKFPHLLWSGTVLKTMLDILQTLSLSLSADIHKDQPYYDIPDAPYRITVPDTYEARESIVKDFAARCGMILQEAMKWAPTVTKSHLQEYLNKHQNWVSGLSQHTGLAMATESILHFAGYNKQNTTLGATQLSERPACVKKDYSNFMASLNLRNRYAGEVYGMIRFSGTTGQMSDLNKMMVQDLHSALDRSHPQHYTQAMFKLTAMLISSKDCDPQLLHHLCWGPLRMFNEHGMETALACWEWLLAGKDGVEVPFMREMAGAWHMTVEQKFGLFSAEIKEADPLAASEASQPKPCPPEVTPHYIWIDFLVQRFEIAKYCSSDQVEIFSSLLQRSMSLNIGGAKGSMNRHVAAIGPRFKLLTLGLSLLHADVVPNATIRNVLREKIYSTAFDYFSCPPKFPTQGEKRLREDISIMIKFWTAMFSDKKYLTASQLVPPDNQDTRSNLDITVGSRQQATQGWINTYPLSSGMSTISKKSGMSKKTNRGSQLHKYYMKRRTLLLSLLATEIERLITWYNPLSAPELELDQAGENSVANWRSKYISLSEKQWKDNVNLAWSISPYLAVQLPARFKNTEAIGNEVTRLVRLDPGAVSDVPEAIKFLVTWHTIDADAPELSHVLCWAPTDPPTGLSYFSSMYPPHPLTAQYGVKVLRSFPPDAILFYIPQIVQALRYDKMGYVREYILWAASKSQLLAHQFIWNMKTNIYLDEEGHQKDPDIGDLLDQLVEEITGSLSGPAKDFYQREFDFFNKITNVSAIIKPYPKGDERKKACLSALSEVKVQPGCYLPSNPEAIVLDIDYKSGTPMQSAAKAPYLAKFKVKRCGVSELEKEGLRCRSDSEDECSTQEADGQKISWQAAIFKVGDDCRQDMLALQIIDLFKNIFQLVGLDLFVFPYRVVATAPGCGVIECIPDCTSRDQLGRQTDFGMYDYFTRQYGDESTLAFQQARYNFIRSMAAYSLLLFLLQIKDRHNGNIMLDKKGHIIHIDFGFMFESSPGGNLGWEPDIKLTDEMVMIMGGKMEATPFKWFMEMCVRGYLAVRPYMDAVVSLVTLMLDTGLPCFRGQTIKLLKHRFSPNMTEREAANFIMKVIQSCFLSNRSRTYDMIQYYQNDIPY

[11] = target: Putative phosphatidylinositol 4-kinase alpha-like protein P2 (Homo sapiens) (UniProt A4QPH2); assay: Inhibition of PI4KAP2 in human NCI-H929 cells at 10 uM by mass spectroscopic analysis relative to control; assay type: cell-based
Putative phosphatidylinositol 4-kinase alpha-like protein P2 (Homo sapiens), sequence (A4QPH2 whole entry): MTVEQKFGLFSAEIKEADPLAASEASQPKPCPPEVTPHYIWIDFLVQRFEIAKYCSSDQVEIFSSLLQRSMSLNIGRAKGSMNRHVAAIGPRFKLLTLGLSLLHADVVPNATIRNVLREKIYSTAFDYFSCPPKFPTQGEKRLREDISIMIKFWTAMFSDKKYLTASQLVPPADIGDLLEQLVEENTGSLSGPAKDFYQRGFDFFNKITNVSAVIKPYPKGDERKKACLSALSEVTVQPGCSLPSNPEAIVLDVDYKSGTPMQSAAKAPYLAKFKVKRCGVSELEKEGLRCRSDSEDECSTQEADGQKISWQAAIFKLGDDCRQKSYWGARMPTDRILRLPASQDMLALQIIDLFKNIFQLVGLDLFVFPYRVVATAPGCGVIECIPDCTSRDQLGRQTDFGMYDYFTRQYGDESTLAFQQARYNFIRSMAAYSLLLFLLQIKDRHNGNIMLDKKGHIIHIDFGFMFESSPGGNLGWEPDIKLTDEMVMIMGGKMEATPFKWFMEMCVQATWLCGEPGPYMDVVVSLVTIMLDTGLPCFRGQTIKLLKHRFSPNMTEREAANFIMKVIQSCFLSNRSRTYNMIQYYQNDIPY

[12] = target: Serine/threonine-protein kinase WNK2 (Homo sapiens) (UniProt Q9Y3S1); assay: Inhibition of WNK2 in human NCI-H929 cells at 10 uM by mass spectroscopic analysis relative to control; assay type: cell-based
[13] = target: TRAF2 and NCK-interacting protein kinase (Homo sapiens) (UniProt Q9UKE5); assay: Inhibition of TNIK in human NCI-H929 cells at 10 uM by mass spectroscopic analysis relative to control; assay type: cell-based

Row | Compound | IC50 [1] [nM] | inhibition [2] [%] | inhibition [3] [%] | inhibition [4] [%] | inhibition [5] [%] | inhibition [6] [%] | inhibition [7] [%] | inhibition [8] [%] | inhibition [9] [%] | inhibition [10] [%] | inhibition [11] [%] | inhibition [12] [%] | inhibition [13] [%]
1 | Nc1ncc(-c2ccc(NS(=O)(=O)C3CC3)cc2OC2CCCCC2)cc1-c1ccc2c(c1)CCNC2=O | < 40 | 0 | 0 | 0 | 0 | 0 | 0 | 0 | 0 | 0 | 0 | 0 | 50
2 | Nc1ncc(-c2cccc([N+](=O)[O-])c2F)cc1-c1ccc2c(c1)CCNC2=O | < 40 | 0 | 0 | 0 | 0 | 0 | 0 | 0 | 0 | 0 | 0 | > 100 | > 90
3 | Nc1ncc(-c2cccc3ncsc23)cc1-c1ccc2c(c1)CCNC2=O | < 40 | 0 | 0 | 0 | 0 | 0 | 0 | 0 | 0 | 0 | 0 | 0 | > 90
4 | CN(C1CC1)S(=O)(=O)c1ccc(-c2cnc(N)c(-c3ccc4c(c3)CCNC4=O)c2)c(F)c1 | < 40 | 0 | 0 | 0 | 0 | 0 | 0 | 0 | 0 | 0 | 0 | 0 | > 90

The next lines start with the values.

Row | IC50 [1] [nM] | inhibition [2] [%] | inhibition [3] [%] | inhibition [4] [%] | inhibition [5] [%] | inhibition [6] [%] | inhibition [7] [%] | inhibition [8] [%] | inhibition [9] [%] | inhibition [10] [%] | inhibition [11] [%] | inhibition [12] [%] | inhibition [13] [%] | Compound
5 | < 40 | 0 | 0 | 0 | 0 | 0 | 0 | 0 | 0 | 0 | 0 | 0 | > 90 | Nc1ncc(-c2ccc(NS(=O)(=O)C3CC3)cc2F)cc1-c1ccc2c(c1)CCNC2=O
6 | < 40 | 0 | 0 | 0 | 0 | 0 | 0 | 0 | 0 | 0 | 0 | 0 | > 90 | COc1cc(NS(=O)(=O)C2CC2)ccc1-c1cnc(N)c(-c2ccc3c(c2)CCNC3=O)c1

From ChEMBL document CHEMBL4804281, “STK4 inhibitors for treatment of hematologic malignancies” (2020)
